In the supplement of paper PMC10307832:

Columns and labels:
Assay in all cases: relative viability (nuclei count vs DMSO), 5 days (fraction); higher = more cells survive
Dabrafenib = compound: CC(C)(C)c1nc(-c2cccc(NS(=O)(=O)c3c(F)cccc3F)c2F)c(-c2ccnc(N)n2)s1 [Dabrafenib]
Outline: (§1)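 For viability, nuclei in each treated well were divided by nuclei in vehicle wells and the median across plates was taken. Lung cancer cell lines in 1536-well plates were pinned with five library-drug doses (not always all listed) spaced by √10, cultured 5 days without medium change, and imaged at 4× after Hoechst staining, with plates passing only at control CV below 25% and at least one doubling.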

VX-702 = compound: NC(=O)c1ccc(N(C(N)=O)c2c(F)cccc2F)nc1-c1ccc(F)cc1F [VX-702]
Outline: as §1

Dabrafenib + Alpelisib = compound: CC(C)(C)c1nc(-c2cccc(NS(=O)(=O)c3c(F)cccc3F)c2F)c(-c2ccnc(N)n2)s1 [Dabrafenib] + Cc1nc(NC(=O)N2CCC[C@H]2C(N)=O)sc1-c1ccnc(C(C)(C)C(F)(F)F)c1 [Alpelisib] (partner 2 µM)
Outline: (§2)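 A single step with final 0.05% Triton X-100, 1% formaldehyde and 1 ug/ml Hoechst fixed the cells and stained nuclei 5 days after treatment. Lung cancer cell lines in 1536-well plates had been treated by pin tool the day after seeding with one drug alone or a fixed anchor-drug dose plus five library-drug doses (not always all listed) in √10 steps, and nuclei were counted on 4× images. Relative viability is the ratio of nuclei in treated wells to nuclei in vehicle wells, taken as the median of duplicate plates.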

VX-702 + Bortezomib = compound: NC(=O)c1ccc(N(C(N)=O)c2c(F)cccc2F)nc1-c1ccc(F)cc1F [VX-702] + CC(C)C[C@H](NC(=O)[C@H](Cc1ccccc1)NC(=O)c1cnccn1)B(O)O [Bortezomib] (partner 0.002 µM)
Outline: as §2

Cell Line	relative viability (Dabrafenib; 0.009487 µM)	relative viability (Dabrafenib; 0.09487 µM)	relative viability (Dabrafenib; 0.3 µM)	relative viability (VX-702; 0.02 µM)	relative viability (VX-702; 0.2 µM)	relative viability (VX-702; 0.6325 µM)	relative viability (VX-702; 2 µM)	relative viability (Dabrafenib + Alpelisib; first compound 0.009487 µM)	relative viability (Dabrafenib + Alpelisib; first compound 0.09487 µM)	relative viability (Dabrafenib + Alpelisib; first compound 0.3 µM)	relative viability (VX-702 + Bortezomib; first compound 0.02 µM)	relative viability (VX-702 + Bortezomib; first compound 0.2 µM)	relative viability (VX-702 + Bortezomib; first compound 0.6325 µM)	relative viability (VX-702 + Bortezomib; first compound 2 µM)	relative viability (Dabrafenib; 0.003 µM)	relative viability (Dabrafenib; 0.03 µM)	relative viability (Dabrafenib + Alpelisib; first compound 0.03 µM)	relative viability (Dabrafenib + Alpelisib; first compound 0.003 µM)
NCI-H322M	1.14	0.943	0.9	0.979	0.888	1.01	1.02	0.829	0.629	0.85	1.22	1.25	1.31	1.18				
HCC-366	1.04	0.993	1.11	1.06	0.969	0.98	0.587	0.435	0.374	0.59	1.01	0.969	1.12	0.634	0.734	0.725	0.145	
NCI-H1355	0.986	0.739	1.04	1.07	0.997	1.02	1.08	0.935		0.809	1.26	1.22	1.27	1.26		0.986	0.608	
LC-2-ad	1.08	0.892	1.06	1.04	1.01	1.05	1.06	0.824	0.835	0.882	1.08	1.08	1.12	1.22	0.79	1	0.891	0.907
NCI-H2087	1.08	0.687	0.898	1.17	1.01	0.997	1.08	1.12	0.823	0.831	0.824	0.889	0.818	0.914		0.853	1.11	1.19
BEN	1.05	0.889	1.07	0.853	0.879	0.866	1.06	1.16	0.974	1.17	0.823	0.545	0.658	0.922				
NCI-H2228	0.987	0.902	0.944	1.11	1.06	0.84	1.08	0.858	0.807	0.896	1.02	0.917	1.31	1.04	0.864	0.994	0.813	0.585
HCC-827	1.08		1.02	1.03	1.08	1.09	0.647	0.967	0.793	0.963	0.966	1.03	0.997	0.541	0.916	0.996	0.778	0.895
IA-LM	0.84	0.58	0.405	0.956	0.896	0.92	1.04	0.607	0.242	0.0678	0.787	0.796	0.872	0.919	1	0.984	0.72	0.613
NCI-H522	1.2	0.97	1.07	0.989	0.982	0.928	0.992									1		
H3255	1.05	0.873	1.04	0.978	0.966	0.96	1.05	0.813	0.669	0.664	0.716	0.772	1.02	0.917	0.868	0.992	0.684	0.647
NCI-H838	1.07	0.896	1.05	0.968	0.948	0.984	1.07	1.07	0.93	1.15	0.857	0.94	0.796	0.937	0.966	0.889	0.861	1.01
NCI-H1993	0.945	1.12	1.4	0.876	0.874	1.04	0.862	0.618	0.686	0.778	0.841	1.01	0.992	1.01	0.913	0.966	0.534	0.689
SK-MES-1	1.08	0.954	0.934	0.998	0.966	0.944	0.999	0.828	0.683	0.611					0.81	1.03	0.933	0.91
NCI-H661	0.967	0.986	0.958	1.02	0.98	1.04	1.1	0.707	0.432	0.687	0.731	0.731	1.11	1.21	0.988	0.94	0.382	0.259
NCI-H1650	1.26	1.07	1.36	1	1.01	1.09	1.02				0.195	0.207	0.189	0.185	0.944	0.854		
ABC-1	1.06	0.844	1.02	0.979	0.813	0.903	1.02	0.934	1.13	1.28	0.35		0.26	0.329	0.833	0.871	1.14	
LU99A	1.06	0.88	0.801	1.05	0.912	1.02	0.781	0.439	0.502	0.515	1.09	1.05	1.14	0.934	0.968	0.917	0.48	0.563
ChaGo-K-1	0.951	0.912	1.01	1.03	0.993	0.994	1.02				0.911	0.861	1.06	1.22	0.787	0.876		
NCI-H2170	1.01	0.815	0.895	1.09	0.946	1.05	1	0.848	0.733	0.95					0.991	0.906	0.713	0.91
NCI-H2347	1.07	0.811	0.89	1.05	1.1	1.04	1.01	1.01	0.965	0.991	0.995	0.83	1.02	1.13		0.877	0.887	0.561

Cell Line	relative viability (Dabrafenib; 0.009487 µM)	relative viability (Dabrafenib; 0.09487 µM)	relative viability (Dabrafenib; 0.3 µM)	relative viability (VX-702; 0.02 µM)	relative viability (VX-702; 0.2 µM)	relative viability (VX-702; 0.6325 µM)	relative viability (VX-702; 2 µM)	relative viability (Dabrafenib + Alpelisib; first compound 0.009487 µM)	relative viability (Dabrafenib + Alpelisib; first compound 0.09487 µM)	relative viability (Dabrafenib + Alpelisib; first compound 0.3 µM)	relative viability (VX-702 + Bortezomib; first compound 0.02 µM)	relative viability (VX-702 + Bortezomib; first compound 0.2 µM)	relative viability (VX-702 + Bortezomib; first compound 0.6325 µM)	relative viability (VX-702 + Bortezomib; first compound 2 µM)	relative viability (Dabrafenib; 0.003 µM)	relative viability (Dabrafenib; 0.03 µM)	relative viability (Dabrafenib + Alpelisib; first compound 0.03 µM)	relative viability (Dabrafenib + Alpelisib; first compound 0.003 µM)
NCI-H1437	0.971	0.971	1.02	0.995	0.973	1.06	1.15	1	1.02	1.06	0.592	0.631	0.587	0.595	0.939	1.02	1.04	1.03
CAL-12T	1.01	0.946	1.18	0.959	0.994	1.04	1.07	1.33	1.14	1.45	1.02	0.928	0.885	1.06	0.96	1.05	1.27	1.38
NCI-H1651	0.939	1.02	0.948	1.02	0.985	0.998	1.06	1.01	0.935	0.904	0.958	0.96	0.95	1.03	0.977	0.953	0.859	0.994
RERF-LC-KJ	1.15	0.986	1.1	0.989	1.03	1.01	1.03	0.979	0.848	0.953	1.18	1.06	1.2	1.28	1	0.969	0.781	0.73
EKVX	1.03	0.941	1.14	0.95	0.863	0.891	0.923	1.05	0.682	1.07	1.01	0.738	1.05	1.42	0.693	0.932	0.889	0.923
EMC-BAC-2	1.04	0.701	0.751	1	0.943	0.98	0.842	0.746	0.666	0.784	1.11	1.04	1.04	1.09		0.706	0.574	0.744
PC-3 [JPC-3]	1.08	1.03	1.13	1.11	0.988	1.13	1.06	0.996	0.907	0.956	0.836	0.796	0.966	0.809	0.822	1.11	1.02	1.01
HCC-78	1.03	0.816	1.05	0.947	0.878	0.98	1.07	0.445	0.305	0.332	0.314	0.521	0.472	0.506		0.932	0.346	
NCI-H647	0.967	0.871	1.01	0.855	0.874	0.996	1.14	1.09	0.945	1.03	1.14	0.84	1.25	1.41		0.71	1.12	
NCI-H1666	0.943	0.984	1.01	0.968	0.854	0.972	0.75		0.973	1.11	0.906	0.672	0.989	0.606	1.01	1.03	0.962	0.988
NCI-H3122	1.05	0.991	1.06	1.01	0.979	1	1	0.774	0.912	0.89	0.991	0.958	0.987	0.931	0.981	1.09	0.897	0.877
NCI-H1623	0.969	1.03	1.13	0.834	0.943	1.02	0.905									0.924		
NCI-H358	1.14	1.03	1.17	0.965	0.857	0.916	1.1	1.01	1.01	1.15						0.932	0.735	
NCI-H1395	0.971	0.774	0.788	0.971	0.909	0.97	1.03	0.914	0.944	0.878						0.854	0.894	
LK-2	1.04	0.913	1.05	1.02	0.84	0.811	1.04	1.14	1.35	1.13					0.975			1.05
NCI-H2342	0.988	1.06	1.1	0.987	1.07	0.903	1.09								0.864	0.856		
A549	1.03	0.93	0.969	0.999	0.928	1.02	1.07	0.949	0.754	0.705					0.928	0.93	0.83	0.641
NCI-H1944	0.997	0.952	0.985	0.941	0.985	1.01	0.443	0.877	0.84	0.838					0.911	0.841	0.745	0.785
NCI-H1648	0.861	1.12	1.17	0.926	0.877	0.688	0.63								1.02	0.814		
NCI-H1793	1.29	0.761	1.05	0.916	0.79	0.968	0.844	0.675	0.73	0.64							0.615	0.676
